{"source": "paper PMC9571433", "about": "“Design, Synthesis, Anti-Varicella-Zoster and Antimicrobial Activity of (Isoxazolidin-3-yl)Phosphonate Conjugates of N1-Functionalised Quinazoline-2,4-Diones” (Molecules, 2022)", "key": {"[1]": {"tested_on": "TK+ VZV OKA strain", "assay": "microbe, parasite or virus in culture", "type": "cell-based, varicella-zoster virus", "conditions": "Human alphaherpesvirus 3, HEL, read-out: Antiviral Activity EC50 TK+ VZV Strain (OKA)"}, "[2]": {"tested_on": "S. aureus ATCC 2593", "assay": "Broth microdilution MIC/MBC", "conditions": "Staphylococcus aureus, ATCC2593, 24 h, read-out: MIC = MBC"}, "[3]": {"tested_on": "P. aeruginosa ATCC 27853", "assay": "Broth microdilution MIC/MBC", "conditions": "Pseudomonas aeruginosa, ATCC27853, 24 h, read-out: MIC = MBC"}, "[4]": {"tested_on": "human embryonic lung (HEL) cells", "conditions": "minimum cytotoxic concentration causing microscopically detectable alteration of cell morphology"}, "[5]": {"tested_on": "A. brasiliensis ATCC 16404", "assay": "Broth microdilution MIC/MBC (antifungal)", "conditions": "Aspergillus brasiliensis, ATCC16404, 72 h, read-out: MIC = MBC"}, "[6]": {"tested_on": "E. coli ATCC 25922", "assay": "Broth microdilution MIC/MBC", "conditions": "Escherichia coli, ATCC25922, 24 h, read-out: MIC = MBC"}, "[7]": {"tested_on": "C. albicans ATCC 10241", "assay": "Broth microdilution MIC/MBC (antifungal)", "conditions": "Candida albicans, ATCC10241, read-out: MIC = MBC"}, "[8]": {"tested_on": "Salmonella typhimurium TA98, TA100, TA1535 and TA1537 and Escherichia coli WP2 uvrA[pKM101]", "assay": "Ames mutagenicity assay (Ames MPF Penta I, bacterial reverse mutation test, with S9)", "type": "cell-based", "conditions": "up to 0.625 mg/mL; with Aroclor 1254-induced rat liver S9", "description": "The study was performed using a standard microplate Ames MPF^TM Penta I kit (Xenometrix, Allschwil, Switzerland), compliant with the OECD guideline […] [29] and the International Organization for Standardization. This test is a widely accepted short-term bacterial assay for the identification of substances that can produce genetic damage that leads to gene mutations. The bacterial strains used in this assay have various mutations that inactivate a gene involved in the synthesis of essential amino acids, either histidine (Salmonella typhimurium, TA98, TA100, TA1535 and TA1537 strains) or tryptophan (Escherichia coli, WP2uvrA[pKM101 strain), so they can only grow in the culture medium that is supplemented with that amino acid. The mutagenic potential of the sample was assessed after metabolic activation in the presence of Aroclor 1254-induced rat liver S9 (S9 Cofactor kit, Xenometrix, Allschwil, Switzerland). […]\nMutagenicity was determined using a standard microplate AMES MPF^TM PENTA I kit according to the manufacturer’s instructions (Xenometrix, Allschwil, Switzerland). […] The number of wells containing revertant colonies was counted for each dose and compared to a solvent (negative) control. […] The mutagenic potential of the sample was assessed after metabolic activation in the presence of Aroclor 1254-induced rat liver S9 (S9 Cofactor kit, Xenometrix, Allschwil, Switzerland). […]"}, "[9]": {"tested_on": "B. cereus PCM 1948", "assay": "Broth microdilution MIC/MBC", "conditions": "Bacillus cereus"}, "[10]": {"tested_on": "E. faecalis ATCC 29212", "assay": "Broth microdilution MIC/MBC", "conditions": "Enterococcus faecalis, ATCC29212, 24 h"}, "[11]": {"tested_on": "TK– VZV 07-1 strain", "assay": "microbe, parasite or virus in culture", "type": "cell-based, varicella-zoster virus", "conditions": "Human alphaherpesvirus 3, HEL, read-out: Antiviral Activity EC50 TK– VZV Strain (07-1)"}, "[12]": {"tested_on": "adenovirus-2", "parameters": "method as in PMID 28763115", "conditions": "read-out: EC50 towards adenovirus-2; cited from earlier work"}, "[13]": {"tested_on": "varicella-zoster virus (VZV)", "parameters": "method as in PMID 24906510, PMID 28763115, PMID 24219992", "conditions": "read-out: EC50 inhibition of replication of varicella-zoster virus (VZV); cited from earlier work"}}, "note": "pEC50: −log10 of the molar value. Read-outs that look alike come from different tables or passages of the source."}
{"smiles": "CCOP(=O)(OCC)[C@H]1C[C@H](Cn2c(=O)c3ccccc3n(Cc3cccc(F)c3)c2=O)ON1C", "note": "(relative stereo) [Diethyl trans-(5-((1-(3-fluorobenzyl)-2,4-dioxo-1,4-dihydroquinazolin-3(2H)-yl)methyl)-2-methylisoxazolidin-3-yl)phosphonate]", "values": [{"measurement": "pEC50", "setting": "[1]", "value": 4.00}, {"measurement": "MIC", "setting": "[2]", "value": 5000, "unit": "µg/mL"}, {"measurement": "MIC", "setting": "[3]", "value": 2500, "unit": "µg/mL"}, {"measurement": "Cytotoxicity Cell Morphology MCC", "setting": "[4]", "value": ">100", "unit": "μM"}, {"measurement": "MIC", "setting": "[5]", "value": 5000, "unit": "µg/mL"}, {"measurement": "MIC", "setting": "[6]", "value": 2500, "unit": "µg/mL"}, {"measurement": "MIC", "setting": "[7]", "value": 2500, "unit": "µg/mL"}, {"measurement": "Mutagenicity (Ames test)", "setting": "[8]", "value": "not being mutagenic"}, {"measurement": "MIC", "setting": "[9]; PCM1948", "value": 625, "unit": "µg/mL"}, {"measurement": "MIC", "setting": "[9]; PCM1948, 24 h, read-out: MIC = MBC", "value": 625, "unit": "µg/mL"}, {"measurement": "MBC", "setting": "[10]", "value": "> 5000", "unit": "µg/mL"}, {"measurement": "MIC", "setting": "[10]", "value": "> 5000", "unit": "µg/mL"}, {"measurement": "pEC50", "setting": "[11]", "value": 4.23}]}
{"smiles": "C#CCn1c(=O)n(C(=O)c2ccc(F)cc2)c(=O)c2ccccc21", "note": "[compound 5]", "values": [{"measurement": "pEC50", "setting": "[12]", "value": 5.08}]}
{"smiles": "O=C(c1ccc(F)cc1)n1c(=O)c2ccccc2n(Cc2cn(CCCOCc3ccccc3)nn2)c1=O", "note": "[6a]", "values": [{"measurement": "pEC50", "setting": "[13]", "value": "5.09 to 5.17"}]}
